{
  "source": "patent US20240150711A1",
  "about": "“PERSONALIZED REDIRECTION AND REPROGRAMMING OF T CELLS FOR PRECISE TARGETING OF TUMORS” (Dana-Farber Cancer Institute, Inc., priority 2021, published 2024)",
  "test_system": "Tcf7",
  "experiment": "Tcf7 protein levels by intracellular flow cytometry in CD8 T cells cultured with neutralizing antibodies or added cytokines",
  "format": "cell-based",
  "details": "naïve CD8 T cells from wild-type mice, anti-CD3/anti-CD28 stimulation, cultured 1 week in IL2, IL7, IL15, IL21; versus isotype antibodies",
  "from_the_text": "Next, it was sought to determine whether the effects of blocking IFN-γ signaling on the Tcf7+ phenotype could be recapitulated using a method separate from CRISPR-deletion, such as with neutralizing antibodies. As such, antibodies to both the Ifn-gamma and Ifn-gamma receptor genes were used. Naïve CD8 T cells were isolated from wild-type mice and cultured in the presence of either isotype-control or a combination of Ifn-gamma and IfngR neutralizing antibodies at various dosing levels or in the presence of added cytokines (either IFN-gamma, IFN-alpha, or IL12), then stimulated with anti-CD3/anti-CD28 antibodies and cultured for 1 week in IL2, IL7, IL15, and IL21, and Tcf7 protein levels were quantified by intracellular flow cytometry, as shown in FIG. 11.",
  "data": [
    {"substance": "interferon-γ: added cytokine", "values": [
      {"measurement": "Tcf7 expression (Tcf7 protein levels)", "value": "no effect on Tcf7 expression"}
    ]}
  ]
}
